# Measured values from PubChem BioAssay (NCI).
#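 Each compound was tested at five concentrations against cells in 96-well plates for 48 hours. TGI: total growth inhibition.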
# Tested on: KM12 colon
# Assay: NCI anticancer screen, dose series, 48 h
row,SMILES,TGI
1,COC(=O)CCC1=CCC2(SC)C(=O)Nc3cccc1c32 (configuration not stated),> 100 µM
2,O=C1C2CC=CCC2C(=O)N1n1c(Cc2ccc(Cl)cc2)n[nH]c1=O (configuration not stated),> 100 µM
3,Nc1ccc(-c2nc3cc(F)ccc3s2)cc1Cl,> 100 µM
4,Oc1c(C2=NNC(c3ccc(Cl)cc3Cl)C2)ccc2ccccc12 (configuration not stated),> 100 µM
5,CCCCC1=NNC(=O)C1,> 100 µM

# Tested on: SK-MEL-28 melanoma
# Assay: NCI anticancer screen, dose series, 48 h
row,SMILES,TGI
1,OC1[C@@H]2[C@@H](O)[C@H](O)[C@@H](O)N2C[C@@H]1O (some centres not stated),> 100 µM
2,C=C1C(=O)C[C@H]2C(=C)C(=O)O[C@@H]2C2C1CC[C@@]2(C)O (some centres not stated),85.5 µM
3,O=C(NC(Cc1c[nH]c2ccccc12)C(=O)Nc1ccc(Br)cc1)OCc1ccccc1 (configuration not stated),30.5 µM
4,COC(=O)C1=C(C)NC2=C(C(=O)c3ccccc32)C1c1cn(-c2ccccc2)nc1-c1ccccc1 (configuration not stated),> 100 µM
5,Cc1cc(C)n2nc3nc(N)c(C#N)c(-c4ccccc4)c3c2n1,> 100 µM
6,CC(C)(Cl)C(Br)CCC(C)(Cl)C(Br)CBr (configuration not stated),79.7 µM
7,O=C(NCC(=O)N1CCCC1C(=O)OC(=O)C1CCCN1C(=O)CNC(=O)OCc1ccccc1)OCc1ccccc1 (configuration not stated),70.4 µM
8,CC(C)CC1C(=O)NCCC(NC(=O)C(Cc2ccc(OC(C)(C)C)cc2)NC(=O)OC(C)(C)C)C(=O)NC(Cc2ccccc2)C(=O)NC(Cc2ccccc2)NC1=O (configuration not stated),42.4 µM
9,N#Cc1nc2ccccc2nc1N1CCN(c2ccc([N+](=O)[O-])cc2)CC1,> 100 µM
10,COC(=O)c1cc2c3c(ccc2[nH]1)N(C(=O)c1cc2cc(OC)c(OC)c(OC)c2[nH]1)CC3CCl (configuration not stated),> 100 µM
11,Nc1ccc(Oc2ccc(C34CC5CC6C3CC3CC4C(C5)C6(c4ccc(Oc5ccc(N)cc5)cc4)C3)cc2)cc1,> 81.2 µM
12,Cc1cc2c(cc1Cl)SC(NS(=O)(=O)c1ccc(Cl)cc1)=NS2(=O)=O,> 100 µM
13,COCC1OC(Sc2ccccc2)C(O)C(OC)C1OC (configuration not stated),> 100 µM
14,CC1(C)CC(=O)c2[nH]c3ccccc3c2CC(=O)NCCc2cn1cn2,> 100 µM
15,COC(=O)CCC1=CCC2(SC)C(=O)Nc3cccc1c32 (configuration not stated),> 100 µM
16,O=C1C2CC=CCC2C(=O)N1n1c(Cc2ccc(Cl)cc2)n[nH]c1=O (configuration not stated),> 100 µM
17,Nc1ccc(-c2nc3cc(F)ccc3s2)cc1Cl,> 100 µM
18,Oc1c(C2=NNC(c3ccc(Cl)cc3Cl)C2)ccc2ccccc12 (configuration not stated),> 100 µM
19,CCCCC1=NNC(=O)C1,> 100 µM

# Tested on: SF-539 CNS
# Assay: NCI anticancer screen, dose series, 48 h
row,SMILES,TGI
1,OC1[C@@H]2[C@@H](O)[C@H](O)[C@@H](O)N2C[C@@H]1O (some centres not stated),> 100 µM
2,C=C1C(=O)C[C@H]2C(=C)C(=O)O[C@@H]2C2C1CC[C@@]2(C)O (some centres not stated),> 100 µM
3,O=C(NC(Cc1c[nH]c2ccccc12)C(=O)Nc1ccc(Br)cc1)OCc1ccccc1 (configuration not stated),29.2 µM
4,COC(=O)C1=C(C)NC2=C(C(=O)c3ccccc32)C1c1cn(-c2ccccc2)nc1-c1ccccc1 (configuration not stated),> 100 µM
5,Cc1cc(C)n2nc3nc(N)c(C#N)c(-c4ccccc4)c3c2n1,> 100 µM
6,CC(C)(Cl)C(Br)CCC(C)(Cl)C(Br)CBr (configuration not stated),49.7 µM
7,O=C(NCC(=O)N1CCCC1C(=O)OC(=O)C1CCCN1C(=O)CNC(=O)OCc1ccccc1)OCc1ccccc1 (configuration not stated),40.6 µM
8,CC(C)CC1C(=O)NCCC(NC(=O)C(Cc2ccc(OC(C)(C)C)cc2)NC(=O)OC(C)(C)C)C(=O)NC(Cc2ccccc2)C(=O)NC(Cc2ccccc2)NC1=O (configuration not stated),44.9 µM
9,COC(=O)c1cc2c3c(ccc2[nH]1)N(C(=O)c1cc2cc(OC)c(OC)c(OC)c2[nH]1)CC3CCl (configuration not stated),> 79.2 µM
10,Cc1cc2c(cc1Cl)SC(NS(=O)(=O)c1ccc(Cl)cc1)=NS2(=O)=O,73.9 µM
11,COCC1OC(Sc2ccccc2)C(O)C(OC)C1OC (configuration not stated),> 100 µM
12,CC1(C)CC(=O)c2[nH]c3ccccc3c2CC(=O)NCCc2cn1cn2,> 100 µM
13,COC(=O)CCC1=CCC2(SC)C(=O)Nc3cccc1c32 (configuration not stated),> 100 µM
14,Nc1ccc(-c2nc3cc(F)ccc3s2)cc1Cl,45.1 µM
15,Oc1c(C2=NNC(c3ccc(Cl)cc3Cl)C2)ccc2ccccc12 (configuration not stated),> 100 µM
16,CCCCC1=NNC(=O)C1,> 100 µM

# Tested on: K-562 leukemia
# Assay: NCI anticancer screen, dose series, 48 h
row,SMILES,TGI
1,OC1[C@@H]2[C@@H](O)[C@H](O)[C@@H](O)N2C[C@@H]1O (some centres not stated),> 100 µM
2,C=C1C(=O)C[C@H]2C(=C)C(=O)O[C@@H]2C2C1CC[C@@]2(C)O (some centres not stated),> 100 µM
3,O=C(NC(Cc1c[nH]c2ccccc12)C(=O)Nc1ccc(Br)cc1)OCc1ccccc1 (configuration not stated),51.3 µM
4,COC(=O)C1=C(C)NC2=C(C(=O)c3ccccc32)C1c1cn(-c2ccccc2)nc1-c1ccccc1 (configuration not stated),> 100 µM
5,Cc1cc(C)n2nc3nc(N)c(C#N)c(-c4ccccc4)c3c2n1,> 100 µM
6,CC(C)(Cl)C(Br)CCC(C)(Cl)C(Br)CBr (configuration not stated),> 100 µM
7,O=C(NCC(=O)N1CCCC1C(=O)OC(=O)C1CCCN1C(=O)CNC(=O)OCc1ccccc1)OCc1ccccc1 (configuration not stated),72.8 µM
8,CC(C)CC1C(=O)NCCC(NC(=O)C(Cc2ccc(OC(C)(C)C)cc2)NC(=O)OC(C)(C)C)C(=O)NC(Cc2ccccc2)C(=O)NC(Cc2ccccc2)NC1=O (configuration not stated),10.3 µM
9,Nc1ccc(Oc2ccc(C34CC5CC6C3CC3CC4C(C5)C6(c4ccc(Oc5ccc(N)cc5)cc4)C3)cc2)cc1,40.5 µM
10,Cc1cc2c(cc1Cl)SC(NS(=O)(=O)c1ccc(Cl)cc1)=NS2(=O)=O,> 100 µM
11,COCC1OC(Sc2ccccc2)C(O)C(OC)C1OC (configuration not stated),> 100 µM
12,CC1(C)CC(=O)c2[nH]c3ccccc3c2CC(=O)NCCc2cn1cn2,> 100 µM
13,O=C1C2CC=CCC2C(=O)N1n1c(Cc2ccc(Cl)cc2)n[nH]c1=O (configuration not stated),> 100 µM
14,Nc1ccc(-c2nc3cc(F)ccc3s2)cc1Cl,> 100 µM
15,Oc1c(C2=NNC(c3ccc(Cl)cc3Cl)C2)ccc2ccccc12 (configuration not stated),76.9 µM

# Tested on: MDA-MB-435
# Assay: NCI anticancer screen, dose series, 48 h
row,SMILES,TGI
1,OC1[C@@H]2[C@@H](O)[C@H](O)[C@@H](O)N2C[C@@H]1O (some centres not stated),> 100 µM
2,C=C1C(=O)C[C@H]2C(=C)C(=O)O[C@@H]2C2C1CC[C@@]2(C)O (some centres not stated),> 100 µM
3,O=C(NC(Cc1c[nH]c2ccccc12)C(=O)Nc1ccc(Br)cc1)OCc1ccccc1 (configuration not stated),22.1 µM
4,COC(=O)C1=C(C)NC2=C(C(=O)c3ccccc32)C1c1cn(-c2ccccc2)nc1-c1ccccc1 (configuration not stated),> 100 µM
5,Cc1cc(C)n2nc3nc(N)c(C#N)c(-c4ccccc4)c3c2n1,> 100 µM
6,CC(C)(Cl)C(Br)CCC(C)(Cl)C(Br)CBr (configuration not stated),73.6 µM
7,O=C(NCC(=O)N1CCCC1C(=O)OC(=O)C1CCCN1C(=O)CNC(=O)OCc1ccccc1)OCc1ccccc1 (configuration not stated),68.3 µM
8,CC(C)CC1C(=O)NCCC(NC(=O)C(Cc2ccc(OC(C)(C)C)cc2)NC(=O)OC(C)(C)C)C(=O)NC(Cc2ccccc2)C(=O)NC(Cc2ccccc2)NC1=O (configuration not stated),12.2 µM
9,N#Cc1nc2ccccc2nc1N1CCN(c2ccc([N+](=O)[O-])cc2)CC1,> 100 µM
10,COC(=O)c1cc2c3c(ccc2[nH]1)N(C(=O)c1cc2cc(OC)c(OC)c(OC)c2[nH]1)CC3CCl (configuration not stated),> 100 µM
11,Nc1ccc(Oc2ccc(C34CC5CC6C3CC3CC4C(C5)C6(c4ccc(Oc5ccc(N)cc5)cc4)C3)cc2)cc1,19 µM
12,Cc1cc2c(cc1Cl)SC(NS(=O)(=O)c1ccc(Cl)cc1)=NS2(=O)=O,> 100 µM
13,COCC1OC(Sc2ccccc2)C(O)C(OC)C1OC (configuration not stated),> 100 µM
14,CC1(C)CC(=O)c2[nH]c3ccccc3c2CC(=O)NCCc2cn1cn2,> 100 µM
15,COC(=O)CCC1=CCC2(SC)C(=O)Nc3cccc1c32 (configuration not stated),> 100 µM
16,O=C1C2CC=CCC2C(=O)N1n1c(Cc2ccc(Cl)cc2)n[nH]c1=O (configuration not stated),> 100 µM
17,Nc1ccc(-c2nc3cc(F)ccc3s2)cc1Cl,> 100 µM
18,Oc1c(C2=NNC(c3ccc(Cl)cc3Cl)C2)ccc2ccccc12 (configuration not stated),> 100 µM
19,CCCCC1=NNC(=O)C1,> 100 µM

# Tested on: NCI-H23 lung
# Assay: NCI anticancer screen, dose series, 48 h
row,SMILES,TGI
1,OC1[C@@H]2[C@@H](O)[C@H](O)[C@@H](O)N2C[C@@H]1O (some centres not stated),> 100 µM
2,C=C1C(=O)C[C@H]2C(=C)C(=O)O[C@@H]2C2C1CC[C@@]2(C)O (some centres not stated),59.4 µM
3,O=C(NC(Cc1c[nH]c2ccccc12)C(=O)Nc1ccc(Br)cc1)OCc1ccccc1 (configuration not stated),26.5 µM
4,COC(=O)C1=C(C)NC2=C(C(=O)c3ccccc32)C1c1cn(-c2ccccc2)nc1-c1ccccc1 (configuration not stated),> 100 µM
5,Cc1cc(C)n2nc3nc(N)c(C#N)c(-c4ccccc4)c3c2n1,> 100 µM
6,CC(C)(Cl)C(Br)CCC(C)(Cl)C(Br)CBr (configuration not stated),55.6 µM
7,O=C(NCC(=O)N1CCCC1C(=O)OC(=O)C1CCCN1C(=O)CNC(=O)OCc1ccccc1)OCc1ccccc1 (configuration not stated),> 100 µM
8,CC(C)CC1C(=O)NCCC(NC(=O)C(Cc2ccc(OC(C)(C)C)cc2)NC(=O)OC(C)(C)C)C(=O)NC(Cc2ccccc2)C(=O)NC(Cc2ccccc2)NC1=O (configuration not stated),33.7 µM
9,N#Cc1nc2ccccc2nc1N1CCN(c2ccc([N+](=O)[O-])cc2)CC1,> 100 µM
10,COC(=O)c1cc2c3c(ccc2[nH]1)N(C(=O)c1cc2cc(OC)c(OC)c(OC)c2[nH]1)CC3CCl (configuration not stated),> 100 µM
11,Nc1ccc(Oc2ccc(C34CC5CC6C3CC3CC4C(C5)C6(c4ccc(Oc5ccc(N)cc5)cc4)C3)cc2)cc1,> 82.9 µM
12,Cc1cc2c(cc1Cl)SC(NS(=O)(=O)c1ccc(Cl)cc1)=NS2(=O)=O,> 100 µM
13,COCC1OC(Sc2ccccc2)C(O)C(OC)C1OC (configuration not stated),> 100 µM
14,CC1(C)CC(=O)c2[nH]c3ccccc3c2CC(=O)NCCc2cn1cn2,> 100 µM
15,COC(=O)CCC1=CCC2(SC)C(=O)Nc3cccc1c32 (configuration not stated),> 100 µM
16,O=C1C2CC=CCC2C(=O)N1n1c(Cc2ccc(Cl)cc2)n[nH]c1=O (configuration not stated),> 100 µM
17,Oc1c(C2=NNC(c3ccc(Cl)cc3Cl)C2)ccc2ccccc12 (configuration not stated),> 100 µM
18,CCCCC1=NNC(=O)C1,> 100 µM
